Laboratory results: patent US20250327074A1 (SHAOXING INSTITUTE, ZHEJIANG UNIVERSITY, priority 2024, published 2025)

What follows are compounds tested on TCG codon, mammalian cells (assay: TCG codon recoding efficiency of all amino acids (Table 1)). Conditions: TCG codon recoding of the unnatural amino acid with the aaRS and mutation of the same table line; class symbols.
Type: cell-based
Source text: Specific details are shown in Table 1 below, where “wt” represents the wild-type aminoacyl-tRNA synthetase, “mutation sites” indicate the positions and types of mutations related to specific unnatural amino acid binding on the wild-type aminoacyl-tRNA synthetase, and “unnatural amino acid” represents the unnatural amino acid corresponding to the mutated aminoacyl-tRNA synthetase. In the unnatural amino acid encoding efficiency, “+” indicates a recoding efficiency greater than 40%, “++” greater than 60%, and “+++” greater than 80%.
Accordingly, this application compiles all amino acids reported in the literature that are recognized by orthogonal aminoacyl-tRNA synthetases in mammalian systems and evaluates their recoding efficiency using the TCG codon as an example.

SMILES	Recoding rate (%)
N[C@@H](Cc1ccc(O)c(I)c1)C(=O)O [compound 334]	+++ (“+++” greater than 80%)
N[C@@H](Cc1ccc(C(=O)CF)cc1)C(=O)O [compound 338]	++ (“++” greater than 60%)
N[C@@H](Cc1ccc(C(=O)c2cccc(F)c2)cc1)C(=O)O [compound 340]	++ (“++” greater than 60%)
N[C@@H](Cc1ccc(C(=O)c2cccc(Cl)c2)cc1)C(=O)O [compound 341]	++ (“++” greater than 60%)
N[C@@H](Cc1ccc(C(=O)c2ccc(F)cc2)cc1)C(=O)O [compound 342]	++ (“++” greater than 60%)
N[C@@H](Cc1ccc(C(=O)c2ccc(Cl)cc2)cc1)C(=O)O [compound 343]	++ (“++” greater than 60%)
N[C@@H](Cc1ccc(C(=O)c2ccc(Br)cc2)cc1)C(=O)O [compound 344]	++ (“++” greater than 60%)
N[C@@H](Cc1ccc(C(=O)c2ccc(C(F)(F)F)cc2)cc1)C(=O)O [compound 345]	++ (“++” greater than 60%)
N[C@@H](CCc1cc(=O)oc2cc(O)ccc12)C(=O)O [compound 347]	++ (“++” greater than 60%)
[N-]=[N+]=NCCOc1ccc(C[C@H](N)C(=O)O)cc1 [compound 348]	++ (“++” greater than 60%)
[N-]=[N+]=NCCC(=O)Nc1ccc(C[C@H](N)C(=O)O)cc1 [compound 350]	+++ (“+++” greater than 80%)
C#CCCC(=O)Nc1ccc(C[C@H](N)C(=O)O)cc1 [compound 351]	+++ (“+++” greater than 80%)
C#CCC(=O)Nc1ccc(C[C@H](N)C(=O)O)cc1 [compound 352]	+++ (“+++” greater than 80%)
C=CCCC(=O)Nc1ccc(C[C@H](N)C(=O)O)cc1 [compound 353]	+++ (“+++” greater than 80%)
C=CCC(=O)Nc1ccc(C[C@H](N)C(=O)O)cc1 [compound 354]	+++ (“+++” greater than 80%)
N[C@@H](Cc1ccc(NC(=O)CF)cc1)C(=O)O [compound 355]	+++ (“+++” greater than 80%)
N[C@@H](Cc1ccc(NC(=O)CCl)cc1)C(=O)O [compound 356]	+++ (“+++” greater than 80%)
N[C@@H](Cc1ccc(CC(=O)O)cc1)C(=O)O [compound 357]	++ (“++” greater than 60%)
N[C@@H](Cc1ccc(C(=O)CF)cc1)C(=O)O [compound 358]	+++ (“+++” greater than 80%)
N[C@@H](Cc1ccc(OCCCl)cc1)C(=O)O [compound 364]	++ (“++” greater than 60%)
N[C@@H](Cc1ccc([N+](=O)[O-])cc1)C(=O)O [compound 367]	+++ (“+++” greater than 80%)
N#Cc1ccc(C[C@H](N)C(=O)O)cc1 [compound 368]	+++ (“+++” greater than 80%)
N[C@@H](CCCNC(=O)NCc1ccccc1[N+](=O)[O-])C(=O)O [compound 375]	++ (“++” greater than 60%)
CCCCCC[C@H](N)C(=O)O [compound 376]	++ (“++” greater than 60%)

SMILES	Recoding rate (%)
CC(=O)CCCSC[C@H](N)C(=O)O [compound 377]	++ (“++” greater than 60%)
C=CCCCCSC[C@H](N)C(=O)O [compound 378]	++ (“++” greater than 60%)
CCCCCCSC[C@H](N)C(=O)O [compound 379]	++ (“++” greater than 60%)
CCCCSC[C@H](N)C(=O)O [compound 380]	++ (“++” greater than 60%)
CCCCCCCCSC[C@H](N)C(=O)O [compound 384]	++ (“++” greater than 60%)
C#CCCCSC[C@H](N)C(=O)O [compound 385]	++ (“++” greater than 60%)
[N-]=[N+]=NCCCSC[C@H](N)C(=O)O [compound 387]	++ (“++” greater than 60%)
[N-]=[N+]=NCCCCSC[C@H](N)C(=O)O [compound 388]	++ (“++” greater than 60%)
[N-]=[N+]=NCCCCCSC[C@H](N)C(=O)O [compound 389]	++ (“++” greater than 60%)
CC(=O)c1ccc2cc(NC[C@H](N)C(=O)O)ccc2c1 [compound 391]	++ (“++” greater than 60%)
N[C@@H](CNc1ccc2ccccc2c1)C(=O)O [compound 392]	++ (“++” greater than 60%)
CCSCCCC[C@H](N)C(=O)O [compound 393]	++ (“++” greater than 60%)
N[C@@H](CCCS)C(=O)O [compound 394]	++ (“++” greater than 60%)
N[C@@H](CCCCS)C(=O)O [compound 395]	++ (“++” greater than 60%)
N[C@@H](CSCc1ccccc1[N+](=O)[O-])C(=O)O [compound 401]	+++ (“+++” greater than 80%)
CCOc1cc(COC[C@H](N)C(=O)O)c([N+](=O)[O-])cc1OCC [compound 402]	+++ (“+++” greater than 80%)
C=CC[S+]([O-])C[C@@H](N)C(=O)O (stereo partly drawn) [compound 405]	+++ (“+++” greater than 80%)
C=CCCC[C@H](N)C(=O)O [compound 406]	+++ (“+++” greater than 80%)
CC=CCOC[C@H](N)C(=O)O [compound 408]	+++ (“+++” greater than 80%)
C=CCCCOC[C@H](N)C(=O)O [compound 409]	+++ (“+++” greater than 80%)
N[C@@H](Cc1c[nH]c2ccc(Br)cc12)C(=O)O [compound 414]	+ (“+” indicates a recoding efficiency greater than 40%)
C#CCOc1ccc2[nH]cc(C[C@H](N)C(=O)O)c2c1 [compound 415]	+ (“+” indicates a recoding efficiency greater than 40%)
[N-]=[N+]=Nc1ccc2[nH]cc(C[C@H](N)C(=O)O)c2c1 [compound 416]	+ (“+” indicates a recoding efficiency greater than 40%)

Same assay, conditions: TCG codon recoding of the unnatural amino acid with the aaRS and mutation of the same table line; numeric values

SMILES	Recoding rate (%)
N#Cc1ccc(C[C@H](N)C(=O)O)cc1 [compound 330]	45
N[C@@H](Cc1ccc(I)cc1)C(=O)O [compound 331]	43
COc1ccc(C[C@H](N)C(=O)O)cc1 [compound 332]	73
N[C@@H](Cc1ccc(OS(=O)(=O)O)cc1)C(=O)O [compound 335]	85
N[C@@H](Cc1ccc(OCCBr)cc1)C(=O)O [compound 337]	60
N[C@@H](Cc1ccc(C(=O)c2ccccc2)cc1)C(=O)O [compound 339]	68
N[C@@H](Cc1ccc(C(=O)c2ccccc2)cc1)C(=O)O [compound 346]	74
[N-]=[N+]=NCC(=O)Nc1ccc(C[C@H](N)C(=O)O)cc1 [compound 349]	84
CC(=O)c1ccc(C[C@H](N)C(=O)O)cc1 [compound 359]	78
[N-]=[N+]=Nc1ccc(C[C@H](N)C(=O)O)cc1 [compound 360]	79
Nc1cc(C[C@H](N)C(=O)O)ccc1O [compound 361]	50
N[C@@H](Cc1ccc(B(O)O)cc1)C(=O)O [compound 362]	66
C#CCOc1ccc(C[C@H](N)C(=O)O)cc1 [compound 363]	78
COc1ccc(C[C@H](N)C(=O)O)cc1 [compound 365]	89
N[C@@H](Cc1ccc(Br)cc1)C(=O)O [compound 366]	63
COc1ccc(C[C@H](N)C(=O)O)cc1 [compound 369]	84
N[C@@H](Cc1ccc(I)cc1)C(=O)O [compound 370]	64
N[C@@H](Cc1ccc(O)c(I)c1)C(=O)O [compound 371]	73
N[C@@H](Cc1ccc(OS(=O)(=O)F)cc1)C(=O)O [compound 372]	70

SMILES	Recoding rate (%)
N[C@@H](Cc1ccc(OS(=O)(=O)F)cc1)C(=O)O [compound 373]	68
COc1ccc([N+](=O)[O-])c2c1CCN2C(=O)CC[C@H](N)C(=O)O [compound 374]	43
CCCCCSC[C@H](N)C(=O)O [compound 381]	83
CCCCCCSC[C@H](N)C(=O)O [compound 382]	87
CCCCCCCSC[C@H](N)C(=O)O [compound 383]	74
C#CCCCCSC[C@H](N)C(=O)O [compound 386]	77
CN(C)c1cccc2c(S(=O)(=O)NC[C@H](N)C(=O)O)cccc12 [compound 390]	73
CCCCCC[C@H](N)C(=O)O [compound 396]	88
CCCCCCC[C@H](N)C(=O)O [compound 397]	92
CCCCCCCC[C@H](N)C(=O)O [compound 398]	85
COc1ccc(C[C@H](N)C(=O)O)cc1 [compound 400]	92
CCOc1cc(CSC[C@H](N)C(=O)O)c([N+](=O)[O-])cc1OCC [compound 403]	84
CCOc1cc(C[Se]CC(N)C(=O)O)c([N+](=O)[O-])cc1OCC (stereo not drawn) [compound 404]	59
C=CCCCC[C@H](N)C(=O)O [compound 407]	81
CC(=O)N(C)CCCC[C@H](N)C(=O)O [compound 410]	83
N[C@@H](Cc1c[nH]c2ccc(O)cc12)C(=O)O [compound 411]	75
Cc1ccc2[nH]cc(C[C@H](N)C(=O)O)c2c1 [compound 412]	37
COc1ccc2[nH]cc(C[C@H](N)C(=O)O)c2c1 [compound 413]	85
